Experimental data reported in patent US20240228469A1, “PCSK9 INHIBITORS AND METHODS OF USE THEREOF” (AstraZeneca AB, priority 2022, published 2024).

Tests used:
[1] = target: T1, potassium ion channel hERG (Homo sapiens, UniProt Q12809); assay: Assay 5 hERG assay (patch clamp, CHO cells over-expressing hERG); format: cell-based; details: SyncroPatch 384PE, room temperature, geometric mean, read-out: Assay 5 (hERG Hu CHO if EPh CR-Syncro) GMean IC50
T1 construct: expressed in transfected cells; host or cells: Chinese hamster ovary K1 (CHO)
T1 sequence (Q12809 whole entry): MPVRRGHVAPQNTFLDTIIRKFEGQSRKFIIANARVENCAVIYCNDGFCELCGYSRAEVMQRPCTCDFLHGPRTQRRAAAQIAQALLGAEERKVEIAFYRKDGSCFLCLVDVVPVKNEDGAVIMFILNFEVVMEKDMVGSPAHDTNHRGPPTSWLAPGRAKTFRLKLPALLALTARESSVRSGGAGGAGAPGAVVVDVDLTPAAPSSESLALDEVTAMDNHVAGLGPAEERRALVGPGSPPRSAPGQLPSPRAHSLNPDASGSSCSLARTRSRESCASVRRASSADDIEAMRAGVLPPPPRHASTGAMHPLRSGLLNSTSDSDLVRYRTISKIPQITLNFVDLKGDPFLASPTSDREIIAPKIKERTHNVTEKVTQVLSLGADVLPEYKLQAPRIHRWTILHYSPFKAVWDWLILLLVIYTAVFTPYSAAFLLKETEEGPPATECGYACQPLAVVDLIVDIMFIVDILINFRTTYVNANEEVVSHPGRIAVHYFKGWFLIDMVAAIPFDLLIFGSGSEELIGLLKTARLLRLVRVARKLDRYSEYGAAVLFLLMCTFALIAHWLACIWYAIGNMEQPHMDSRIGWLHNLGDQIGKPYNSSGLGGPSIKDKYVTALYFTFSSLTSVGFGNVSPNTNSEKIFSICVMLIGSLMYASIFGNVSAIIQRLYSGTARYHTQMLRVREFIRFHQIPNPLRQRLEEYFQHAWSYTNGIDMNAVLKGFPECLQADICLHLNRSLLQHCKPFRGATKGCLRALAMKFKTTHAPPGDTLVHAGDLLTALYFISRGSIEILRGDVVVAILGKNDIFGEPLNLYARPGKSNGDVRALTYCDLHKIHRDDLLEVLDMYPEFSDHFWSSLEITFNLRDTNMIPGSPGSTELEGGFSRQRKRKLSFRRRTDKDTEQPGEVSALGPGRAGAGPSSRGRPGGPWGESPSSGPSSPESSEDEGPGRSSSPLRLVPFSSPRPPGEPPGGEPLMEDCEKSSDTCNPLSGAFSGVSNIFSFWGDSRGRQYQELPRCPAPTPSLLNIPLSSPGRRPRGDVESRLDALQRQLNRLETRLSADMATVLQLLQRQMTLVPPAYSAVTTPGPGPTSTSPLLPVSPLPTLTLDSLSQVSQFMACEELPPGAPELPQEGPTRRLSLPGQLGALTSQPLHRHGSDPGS
Description: This assay (human Ether-d-go-go-Related Gene) measures activity of the compounds at the potassium ion channel hERG (human Ether-d-go-go-Related Gene).
Experiments were performed on the SyncroPatch 384PE high throughput patch clamp platform at room temperature and medium resistance chips with 4 patch holes per site. Chinese hamster ovary K1 (CHO) cell lines over-expressing the ion channel of choice (hERG) were used in assay-ready format and kept in liquid nitrogen or were used from live culture. Cells were either thawed and diluted in HBSS or were detached from flasks and resuspended in HBSS. HBSS comprised 140 mM NaCl, 4 mM KCl, 10 mM HEPES and 5 mM Glucose (pH7.4). The internal patch clamp solution was KF 120 mM, KCl 20 mM, HEPES 10 mM, EGTA 10 mM, and 25 PM Escin (pH 7.2). After the sealing process was complete, the external solution was exchanged for external patch clamp solution comprising NaCl 80 mM, KCl 4 mM, HEPES 10 mM, CaCl2 2 mM, MgCl2 1 mM, glucose 5 mM, and NMDG 60 mM (pH 7.4). All solutions were stored at room temperature, except Escin, which was stored at 4° C. All test compounds were dispensed in greiner-bio 384 well plates and tested in a 6 point cumulative assay (final DMSO concentration 0.33%). Only wells that passed previously agreed acceptance criteria for this platform were used in this analysis (30 MegaOhm seal resistance, Z prime >0.4 and current size >0.2 nA). […]

[2] = target: GSK3β (Glycogen synthase kinase-3 beta) (Homo sapiens, UniProt P49841); assay: Assay 6 GSK3β assay (ThermoFisher Z-Lyte FRET); format: biochemical; details: ATP Conc: 10 μM, geometric mean; read-out: Assay 6 (GSK3β FRET-Z-Lyte Cr) GMean IC50
Sequence of GSK3β (Glycogen synthase kinase-3 beta) (P49841 whole entry): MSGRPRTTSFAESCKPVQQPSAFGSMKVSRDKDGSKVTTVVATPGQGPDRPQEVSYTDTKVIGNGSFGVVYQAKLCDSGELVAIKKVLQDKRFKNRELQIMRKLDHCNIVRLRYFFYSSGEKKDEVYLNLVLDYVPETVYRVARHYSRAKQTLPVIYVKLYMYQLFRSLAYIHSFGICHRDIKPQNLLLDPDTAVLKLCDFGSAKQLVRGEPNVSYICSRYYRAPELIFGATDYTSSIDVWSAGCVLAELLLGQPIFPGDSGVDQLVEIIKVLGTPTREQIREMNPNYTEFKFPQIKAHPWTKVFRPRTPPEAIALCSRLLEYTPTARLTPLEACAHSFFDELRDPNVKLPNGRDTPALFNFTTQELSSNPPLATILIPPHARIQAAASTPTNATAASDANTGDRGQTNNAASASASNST
Description: This assay measures the activity of the compounds at GSK33 (Glycogen synthase kinase-3 beta).
The test compounds were screened in 1% DMSO (final) in the well. For 10 point titrations, 3-fold serial dilutions are conducted from the starting concentration of 10 PM.
Bar-coded Corning, low volume NBS, black 384-well plate • 1. 2.5 μL—4× Test Compound or 100 nL 100× plus 2.4 μL kinase buffer • 2. 5 μL—2× Peptide/Kinase Mixture • 3. 2.5 μL—4×ATP Solution • 4. 30-second plate shake • 5. 60-minute Kinase Reaction incubation at room temperature • 6. 5 μL—Development Reagent Solution • 7. 30-second plate shake • 8. 60-minute Development Reaction incubation at room temperature • 9. Read on fluorescence plate reader and analyse the data
In step 2, the 2×GSK3β (GSK3 beta)/Ser/Thr (Glycogen synthase kinase-3 beta/Serine/Threonine) 09 mixture is prepared in 50 mM HEPES (4-(2-hydroxyethyl)-1-piperazineethanesulfonic acid) pH 7.5, 0.01% BRIJ-35, 10 mM MgCl2, 1 mM EGTA (egtazic acid). The final 10 μL Kinase Reaction consists of 0.22-0.92 ng GSK3β (GSK3 beta) and 2 PM Ser/Thr 09 in 50 mM HEPES pH 7.5, 0.01% BRIJ-35, 10 mM MgCl2, 1 mM EGTA.
In step 3 the ATP Solution is diluted to a 4× working concentration in Kinase Buffer (50 mM HEPES pH 7.5, 0.01% BRIJ-35, 10 mM MgCl2, 1 mM EGTA).
In Step 6 the Development Reagent is diluted 1:512 in Development Buffer (10× Novel PKC Lipid Mix: 2 mg/mL Phosphatidyl Serine, 0.2 mg/mL DAG in 20 mM HEPES, pH 7.4, 0.3% CHAPS).
SelectScreen® Kinase Profiling Service uses XLfit from IDBS. The dose response curve is curve fit to model number 205 (sigmoidal dose-response model).

PCSK9 = PCSK9 (Homo sapiens, UniProt Q8NBP7, G670E/V474I); assay: biochemical
Sequence of PCSK9 (Q8NBP7 with tags, fused parts or gaps V474I/G670E): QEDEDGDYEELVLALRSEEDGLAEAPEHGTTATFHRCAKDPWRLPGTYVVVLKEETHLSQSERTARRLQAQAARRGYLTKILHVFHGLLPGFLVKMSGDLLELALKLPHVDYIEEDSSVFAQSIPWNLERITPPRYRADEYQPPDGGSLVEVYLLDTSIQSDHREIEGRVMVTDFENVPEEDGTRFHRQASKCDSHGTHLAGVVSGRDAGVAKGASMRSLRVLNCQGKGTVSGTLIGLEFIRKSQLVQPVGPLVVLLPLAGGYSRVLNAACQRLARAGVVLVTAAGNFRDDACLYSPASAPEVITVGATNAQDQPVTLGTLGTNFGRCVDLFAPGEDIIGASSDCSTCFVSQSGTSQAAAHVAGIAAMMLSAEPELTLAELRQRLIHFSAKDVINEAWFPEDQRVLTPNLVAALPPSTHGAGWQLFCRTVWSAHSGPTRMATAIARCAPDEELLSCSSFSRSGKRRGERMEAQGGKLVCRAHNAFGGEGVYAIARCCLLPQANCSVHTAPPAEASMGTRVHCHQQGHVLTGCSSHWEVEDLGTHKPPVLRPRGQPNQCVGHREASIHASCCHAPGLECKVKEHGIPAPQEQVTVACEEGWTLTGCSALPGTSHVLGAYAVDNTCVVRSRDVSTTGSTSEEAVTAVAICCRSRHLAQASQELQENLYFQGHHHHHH

Compound | IC50 [1] [µM] | IC50 [2] [µM] | IC50 (PCSK9) [µM]
O=c1ccccn1-c1ccc(N[C@H]2CC[C@H](Nc3ncc(Cl)nn3)C2)nc1 [Example 255, 6′-(((1S,3S)-3-((6-Chloro-1,2,4-triazin-3-yl)amino)cyclopentyl)amino)-2H-[1,3′-bipyridin]-2-one] | > 40.1 | 5.33 | 0.078
Cc1cnc(N[C@H]2CC[C@H](Nc3ccc(-c4ncccc4C)cn3)C2)nn1 [Example 248] | > 40.1 | > 10 | 0.013
Cc1cnc(NCC(CCO)CNc2ccc(-n3c(=O)n(C)c4ccccc43)cn2)nn1 (racemic) [Example 321, rac-1-(6-((4-Hydroxy-2-(((6-methyl-1,2,4-triazin-3-yl)amino)methyl)butyl)amino)pyridin-3-yl)-3-methyl-1,3-dihydro-2H-benzo[d]imidazol-2-one] | > 40 | – | 0.297
COc1cccnc1-c1ccc(N[C@H]2CC[C@H](Nc3ncc(C)nn3)C2)nc1 [Example 304, (1S,3S)—N′-(3-Methoxy-[2,3′-bipyridin]-6′-yl)-N^3-(6-methyl-1,2,4-triazin-3-yl)cyclopentane-1,3-diamine] | > 40.1 | > 10 | 0.096
Cn1cccc(-c2cnc(N[C@H]3CC[C@H](Nc4ncc(C5CC5)nn4)C3)cn2)c1=O [Example 113, 3-(5-(((1S,3S)-3-((6-Cyclopropyl-1,2,4-triazin-3-yl)amino)cyclopentyl)amino)pyrazin-2-yl)-1-methylpyridin-2(1H)-one] | > 40 | > 10 | 0.041
Cc1cnc(NCC(CCO)CNc2ccc(-n3cccc(C)c3=O)cn2)nn1 (racemic) [Example 315, rac-6′-((4-Hydroxy-2-(((6-methyl-1,2,4-triazin-3-yl)amino)methyl)butyl)amino)-3-methyl-2H-[1,3′-bipyridin]-2-one] | > 40.1 | > 10 | 1.29
Fc1cccc(F)c1-c1ccc(N[C@H]2CC[C@H](Nc3ncc(C4CC4)nn3)C2)nc1 [Example 53] | 3.4 | > 10 | –
COc1cccc(F)c1-c1ccc(N[C@H]2CC[C@H](Nc3ncc(C4CC4)nn3)C2)nc1 [Example 54] | 4.3 | > 10 | –
Cn1cccc(-c2cnc(N[C@H]3CC[C@H](Nc4ncc(C5CC5)nn4)C3)nc2)c1=O [Example 115, 3-(2-(((1S,3S)-3-((6-Cyclopropyl-1,2,4-triazin-3-yl)amino)cyclopentyl)amino)pyrimidin-5-yl)-1-methylpyridin-2(1H)-one] | > 40 | > 10 | 0.017
Cc1cnc(NCC(CCO)CNc2ccc(-n3c(=O)n(C)c4cccnc43)cn2)nn1 (racemic) [Example 319, rac-3-(6-((4-Hydroxy-2-(((6-methyl-1,2,4-triazin-3-yl)amino)methyl)butyl)amino)pyridin-3-yl)-1-methyl-1,3-dihydro-2H-imidazo[4,5-b]pyridin-2-one] | > 40 | – | 0.705
COc1c(C(=O)O)ccc(F)c1-c1ccc(N[C@H]2CC[C@H](Nc3ncc(C4CC4)nn3)C2)nc1 [Example 167, 3-(6-(((1S,3S)-3-((6-Cyclopropyl-1,2,4-triazin-3-yl)amino)cyclopentyl)amino)pyridin-3-yl)-4-fluoro-2-methoxybenzoic acid] | > 40.1 | > 10 | –
CN(C)c1cnc(N[C@H]2CC[C@H](Nc3ccc(-n4ccccc4=O)cn3)C2)nn1 [Example 256, 6′-(((1S,3S)-3-((6-(Dimethylamino)-1,2,4-triazin-3-yl)amino)cyclopentyl)amino)-2H-[1,3′-bipyridin]-2-one] | > 40.1 | 1.68 | 0.119
Cn1cccc(-c2ccc(N[C@H]3CC[C@H](Nc4ncc(C5CC5)nn4)C3)nc2)c1=O [Example 60, 6′-(((1S,3S)-3-((6-Cyclopropyl-1,2,4-triazin-3-yl)amino)cyclopentyl)amino)-1-methyl-[3,3′-bipyridin]-2(1H)-one] | 21 | > 10 | 0.0091
COc1c(C#N)ccc(F)c1-c1ccc(N[C@H]2CC[C@H](Nc3ncc(C4CC4)nn3)C2)nc1 [Example 168, 3-(6-(((1S,3S)-3-((6-Cyclopropyl-1,2,4-triazin-3-yl)amino)cyclopentyl)amino)pyridin-3-yl)-4-fluoro-2-methoxybenzonitrile] | 3.1 | > 10 | –
CCOC(=O)c1cnc(N[C@H]2CC[C@H](Nc3ccc(-n4ccccc4=O)cn3)C2)nn1 [Compound 10, Ethyl 3-(((1S,3S)-3-((2-oxo-2H-[1,3′-bipyridin]-6′-yl)amino)cyclopentyl)amino)-1,2,4-triazine-6-carboxylate] | > 40 | > 10 | 0.797
COc1cccc(F)c1-c1ccc(N[C@H]2CC[C@H](Nc3ncc(C)nn3)C2)nc1 [Example 308, (1S,3S)—N′-(5-(2-Fluoro-6-methoxyphenyl)pyridin-2-yl)-N^3-(6-methyl-1,2,4-triazin-3-yl)cyclopentane-1,3-diamine] | 12 | > 10 | 0.051
Cc1cnc(N[C@H]2CC[C@H](Nc3ccc(-n4ccc(C#N)cc4=O)cn3)C2)nn1 [Example 183, 6′-(((1S,3S)-3-((6-Methyl-1,2,4-triazin-3-yl)amino)cyclopentyl)amino)-2-oxo-2H-[1,3′-bipyridine]-4-carbonitrile] | > 40.1 | > 10 | 0.03
Cc1cnc(N[C@H]2CC[C@H](Nc3ccc(-c4ccccn4)cn3)C2)nn1 [Example 309, (1S,3S)—N′-([2,3′-Bipyridin]-6′-yl)-N^3-(6-methyl-1,2,4-triazin-3-yl)cyclopentane-1,3-diamine] | 11.4 | > 10 | 0.534
O=c1cccnn1-c1cnc(N[C@H]2CC[C@H](Nc3ncc(C4CC4)nn3)C2)cn1 [Example 59, 2-(5-(((1S,3S)-3-((6-Cyclopropyl-1,2,4-triazin-3-yl)amino)cyclopentyl)amino)pyrazin-2-yl)pyridazin-3(2H)-one] | > 40 | > 10 | 0.045
COc1cccc(OC)c1-c1ccc(N[C@H]2CC[C@H](Nc3ncc(C)nn3)C2)nc1 [Example 307, (1S,3S)—N^1-(5-(2,6-Dimethoxyphenyl)pyridin-2-yl)-N^3-(6-methyl-1,2,4-triazin-3-yl)cyclopentane-1,3-diamine] | 23.3 | > 10 | 1.66
Cc1cnc(NCC(CCO)CNc2ccc(-n3c(=O)ccc4cccnc43)cn2)nn1 (racemic) [Example 320, rac-1-(6-((4-Hydroxy-2-(((6-methyl-1,2,4-triazin-3-yl)amino)methyl)butyl)amino)pyridin-3-yl)-1,8-naphthyridin-2(1H)-one] | > 40 | – | 0.559
Cc1cnc(NCC(CCO)CNc2ccc(-n3c(=O)ccc4ccccc43)cn2)nn1 (racemic) [Example 318, rac-1-(6-((4-Hydroxy-2-(((6-methyl-1,2,4-triazin-3-yl)amino)methyl)butyl)amino)pyridin-3-yl)quinolin-2(1H)-one] | > 40 | – | 0.284
Cc1ccc(=O)n(-c2ccc(NCC(CCO)CNc3ncc(C)nn3)nc2)c1 (racemic) [Example 316, rac-6′-((4-Hydroxy-2-(((6-methyl-1,2,4-triazin-3-yl)amino)methyl)butyl)amino)-5-methyl-2H-[1,3′-bipyridin]-2-one] | > 40 | – | 7.43
